Experimental data as given in PubChem BioAssay AID2060489 (Molecular Pharmacology Branch, DTP, NCI, 2025).

Tested on: 922993-354-T-J3-PDC complex spheroids, viability
Test: Anticancer human tumor 922993-354-T-J3-PDC patient-derived endometrial carcinoma cell line growth inhibition [GQUAD]
Conditions: for IC50: curve of first compound; for viability, T/C: stronger effect = lower value
How it was run: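 Tumor cells were grown as complex spheroids with HUVEC endothelial cells and mesenchymal stem cells as stroma. G-quadruplex stabilizers were combined with targeted agents over half-log dilutions from near the clinical Cmax, or from 10 microM.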

[1] = second compound 0.0316 µM, first compound 0.0316 µM
[2] = second compound 0.0316 µM, first compound 0.316 µM
[3] = second compound 0.1 µM, first compound 0.0316 µM
[4] = second compound 0.1 µM, first compound 0.316 µM
[5] = second compound 0.316 µM, first compound 0.0316 µM
[6] = second compound 0.316 µM, first compound 0.316 µM
[7] = second compound 1 µM, first compound 0.0316 µM
[8] = second compound 1 µM, first compound 0.316 µM
[9] = second compound 3.16 µM, first compound 0.0316 µM
[10] = second compound 3.16 µM, first compound 0.316 µM
[11] = second compound 10 µM, first compound 0.0316 µM
[12] = second compound 10 µM, first compound 0.316 µM
[13] = second compound 0.0316 µM, first compound 0.1 µM
[14] = second compound 0.0316 µM, first compound 1 µM
[15] = second compound 0.0316 µM, first compound 3.16 µM
[16] = second compound 0.0316 µM, first compound 10 µM
[17] = second compound 0.1 µM, first compound 0.1 µM
[18] = second compound 0.1 µM, first compound 1 µM
[19] = second compound 0.1 µM, first compound 3.16 µM
[20] = second compound 0.1 µM, first compound 10 µM
[21] = second compound 0.316 µM, first compound 0.1 µM
[22] = second compound 0.316 µM, first compound 1 µM
[23] = second compound 0.316 µM, first compound 3.16 µM
[24] = second compound 0.316 µM, first compound 10 µM
[25] = second compound 1 µM, first compound 0.1 µM
[26] = second compound 1 µM, first compound 1 µM
[27] = second compound 1 µM, first compound 3.16 µM
[28] = second compound 1 µM, first compound 10 µM
[29] = second compound 3.16 µM, first compound 0.1 µM
[30] = second compound 3.16 µM, first compound 1 µM
[31] = second compound 3.16 µM, first compound 3.16 µM
[32] = second compound 3.16 µM, first compound 10 µM
[33] = second compound 10 µM, first compound 0.1 µM
[34] = second compound 10 µM, first compound 1 µM
[35] = second compound 10 µM, first compound 3.16 µM
[36] = second compound 10 µM, first compound 10 µM
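Also: spheroids exposed to compounds for seven days.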
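For viability, T/C in this document: 100% = DMSO vehicle control viability.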

## Cc1[nH]c2ccccc2c1CCNCc1ccc(/C=C/C(=O)NO)cc1 + Cc1[nH]c2ccc(F)cc2c1-c1nc2c3cccnc3c3ncccc3c2[nH]1
Second compound 0.0316 µM
  IC50: > 316 nM
Second compound 0.1 µM
  IC50: > 316 nM
Second compound 0.316 µM
  IC50: > 316 nM
Second compound 1 µM
  IC50: > 316 nM
Second compound 3.16 µM
  IC50: > 316 nM
Second compound 10 µM
  IC50: > 316 nM
Second compound 0.0316 µM, first compound 0.000999 µM
  viability, T/C: 95.9%
Second compound 0.0316 µM, first compound 0.00316 µM
  viability, T/C: 87%
Second compound 0.0316 µM, first compound 0.00999 µM
  viability, T/C: 100%
[1]
  viability, T/C: 77.6%
Second compound 0.0316 µM, first compound 0.0999 µM
  viability, T/C: 75.6%
[2]
  viability, T/C: 61.3%
Second compound 0.1 µM, first compound 0.000999 µM
  viability, T/C: 94.1%
Second compound 0.1 µM, first compound 0.00316 µM
  viability, T/C: 100%
Second compound 0.1 µM, first compound 0.00999 µM
  viability, T/C: 85.3%
[3]
  viability, T/C: 83.3%
Second compound 0.1 µM, first compound 0.0999 µM
  viability, T/C: 79.3%
[4]
  viability, T/C: 55.8%
Second compound 0.316 µM, first compound 0.000999 µM
  viability, T/C: 96.2%
Second compound 0.316 µM, first compound 0.00316 µM
  viability, T/C: 93.5%
Second compound 0.316 µM, first compound 0.00999 µM
  viability, T/C: 91%
[5]
  viability, T/C: 81.2%
Second compound 0.316 µM, first compound 0.0999 µM
  viability, T/C: 88.3%
[6]
  viability, T/C: 66.9%
Second compound 1 µM, first compound 0.000999 µM
  viability, T/C: 96.3%
Second compound 1 µM, first compound 0.00316 µM
  viability, T/C: 92.2%
Second compound 1 µM, first compound 0.00999 µM
  viability, T/C: 115%
[7]
  viability, T/C: 84%
Second compound 1 µM, first compound 0.0999 µM
  viability, T/C: 100%
[8]
  viability, T/C: 50.6%
Second compound 3.16 µM, first compound 0.000999 µM
  viability, T/C: 93.5%
Second compound 3.16 µM, first compound 0.00316 µM
  viability, T/C: 80.6%
Second compound 3.16 µM, first compound 0.00999 µM
  viability, T/C: 80%
[9]
  viability, T/C: 79.1%
Second compound 3.16 µM, first compound 0.0999 µM
  viability, T/C: 95.4%
[10]
  viability, T/C: 71.8%
Second compound 10 µM, first compound 0.000999 µM
  viability, T/C: 82.6%
Second compound 10 µM, first compound 0.00316 µM
  viability, T/C: 109%
Second compound 10 µM, first compound 0.00999 µM
  viability, T/C: 88.2%
[11]
  viability, T/C: 82.8%
Second compound 10 µM, first compound 0.0999 µM
  viability, T/C: 112%
[12]
  viability, T/C: 70.3%

## Nc1ccn(C2OC(CO)C(O)C2(F)F)c(=O)n1 (stereo unspecified) + Cc1[nH]c2ccc(F)cc2c1-c1nc2c3cccnc3c3ncccc3c2[nH]1
Second compound 0.0316 µM
  IC50: < 31.6 nM
Second compound 0.1 µM
  IC50: < 31.6 nM
Second compound 0.316 µM
  IC50: < 31.6 nM
Second compound 1 µM
  IC50: < 31.6 nM
Second compound 3.16 µM
  IC50: < 31.6 nM
Second compound 10 µM
  IC50: < 31.6 nM
[1]
  viability, T/C: 25.1%
[13]
  viability, T/C: 27.1%
[2]
  viability, T/C: 25.2%
[14]
  viability, T/C: 18.3%
[15]
  viability, T/C: 22.5%
[16]
  viability, T/C: 21.7%
[3]
  viability, T/C: 25.6%
[17]
  viability, T/C: 23.2%
[4]
  viability, T/C: 23.9%
[18]
  viability, T/C: 21.1%
[19]
  viability, T/C: 23%
[20]
  viability, T/C: 22.9%
[5]
  viability, T/C: 25.1%
[21]
  viability, T/C: 23.4%
[6]
  viability, T/C: 24%
[22]
  viability, T/C: 19.2%
[23]
  viability, T/C: 22.7%
[24]
  viability, T/C: 22.1%
[7]
  viability, T/C: 22.4%
[25]
  viability, T/C: 25.7%
[8]
  viability, T/C: 20.1%
[26]
  viability, T/C: 26.4%
[27]
  viability, T/C: 24.2%
[28]
  viability, T/C: 21.7%
[9]
  viability, T/C: 22.6%
[29]
  viability, T/C: 29.2%
[10]
  viability, T/C: 23.3%
[30]
  viability, T/C: 20.4%
[31]
  viability, T/C: 27%
[32]
  viability, T/C: 18.3%
[11]
  viability, T/C: 27.6%
[33]
  viability, T/C: 22.3%
[12]
  viability, T/C: 27%
[34]
  viability, T/C: 23.4%
[35]
  viability, T/C: 26.3%
[36]
  viability, T/C: 26.3%

## O=C(NO)c1cnc(N2CCN(S(=O)(=O)c3ccc4ccccc4c3)CC2)nc1 + Cc1[nH]c2ccc(F)cc2c1-c1nc2c3cccnc3c3ncccc3c2[nH]1
Second compound 0.0316 µM
  IC50: 409 nM
Second compound 0.1 µM
  IC50: 542 nM
Second compound 0.316 µM
  IC50: 772 nM
Second compound 1 µM
  IC50: 870 nM
Second compound 3.16 µM
  IC50: 1120 nM
Second compound 10 µM
  IC50: 921 nM
[1]
  viability, T/C: 116%
[13]
  viability, T/C: 89.1%
[2]
  viability, T/C: 52.9%
[14]
  viability, T/C: 34.6%
[15]
  viability, T/C: 3.09%
[16]
  viability, T/C: 0.42%
[3]
  viability, T/C: 114%
[17]
  viability, T/C: 89.5%
[4]
  viability, T/C: 65%
[18]
  viability, T/C: 38.6%
[19]
  viability, T/C: 3.39%
[20]
  viability, T/C: 0.48%
[5]
  viability, T/C: 93.2%
[21]
  viability, T/C: 95.9%
[6]
  viability, T/C: 72.2%
[22]
  viability, T/C: 46.6%
[23]
  viability, T/C: 4.7%
[24]
  viability, T/C: 0.61%
[7]
  viability, T/C: 84.2%
[25]
  viability, T/C: 90.3%
[8]
  viability, T/C: 68.7%
[26]
  viability, T/C: 51.2%
[27]
  viability, T/C: 6.64%
[28]
  viability, T/C: 0.62%
[9]
  viability, T/C: 75.7%
[29]
  viability, T/C: 86.5%
[10]
  viability, T/C: 91.1%
[30]
  viability, T/C: 51.4%
[31]
  viability, T/C: 15%
[32]
  viability, T/C: 0.64%
[11]
  viability, T/C: 82.8%
[33]
  viability, T/C: 101%
[12]
  viability, T/C: 74.7%
[34]
  viability, T/C: 48.2%
[35]
  viability, T/C: 14.7%
[36]
  viability, T/C: 0.76%
